Assay results: patent publication US20230158034A1, “CO-TREATMENT WITH CDK4/6 AND CDK2 INHIBITORS TO SUPPRESS TUMOR ADAPTATION TO CDK2 INHIBITORS” (Pfizer Inc., priority 2020, published 2023)

How the values were obtained:
[1] = tested on: Rb, Nucleolin, Cdc6 and Nbs1 phosphorylation; experiment: Immunofluorescence and western blotting of endogenous CDK2 substrates; format: cell-based, human; conditions: 10 μM 3 MB-PP1 for 1 hr, RPE-hTERT CDK2^F80G/F80G cells
Protocol: Cells were fixed for 15 minutes with freshly prepared 4% paraformaldehyde, washed twice with PBS, and incubated with a blocking buffer (3% BSA in PBS) for 1 hr at room temperature. Permeabilization was carried out using 0.2% Triton-X 100 for 15 min at 4° C. Primary antibody was diluted in blocking buffer and incubated with cells overnight at 4° C. followed by three washes with 1×PBS. Secondary antibodies conjugated to Alexa Fluor 488, Alexa Fluor 546 or Alexa Fluor 647 were incubated for 1 hr followed by three washes with 1×PBS. DNA was stained using Hoechst 33342 dye for 10 minutes at 1:10000 (ThermoFisher H3570). Images were acquired on a Nikon Eclipse Ti or Ti2 microscope with a 10×0.45 NA objective. DNA content was determined by taking the integrated intensity of each cell's Hoechst signal. Cells were delineated as 3-4N DNA content by plotting a histogram of DNA content and drawing a threshold and the end of the 2N peak.
Lysates were prepared using 1×LDS sample buffer (ThermoFisher NP007) using equal numbers of cells. Proteins were separated using NuPAGE precast polyacrylamide gels (ThermoFisher NP0301). Total protein was quantified using Azure Red Dye (Azure Biosystems AC2124) and was used to normalize the signal from antibodies of interest. Primary antibodies used are specified under the “Antibodies” section. HRP-conjugated or IR700 and IR800 labeled fluorescent secondary antibodies were used for visualization (Cell Signaling Technology 7074 and 7076).

[2] = tested on: CDK2 activity (DHB sensor phosphorylation); experiment: DHB-based CDK2 activity sensor, single-cell time-lapse imaging (C/N ratio); parameters: species or system human
From the text: (§1) The DHB sensor is localized to the nucleus when it is not phosphorylated. Upon phosphorylation, the nuclear localization signal is masked, the nuclear export signal is unmasked, and the sensor steadily translocates to the cytoplasm in response to increasing CDK2 activity (FIG. 1A). Thus, kinase activity can be quantified by the ratio of the cytoplasmic to nuclear fluorescence intensity (C/N ratio) of the DHB sensor. […] Asynchronously cycling cells were first imaged for approximately 20 hr in the absence of drug to establish the cell-cycle phase of each cell; the movie was then paused to add drug, and then imaging was continued for another 1-2 days. Because the cells were cycling asynchronously, all cell-cycle phases with one drug treatment were sampled. This allowed the present inventors to computationally isolate traces for cells that received drug at any time since the completion of anaphase.
(§2) Cells were seeded at least 24 hr prior to imaging in phenol-red-free full-growth medium in glass-bottom 96-well plates (CellVis P96-1.5H-N) that were coated with collagen prior to seeding. The seeding density was chosen such that the cells would remain sub-confluent until the end of the imaging period. Cells were first imaged for 16-20 hr in full-growth media without drug. The movie was then briefly paused and the full-growth media was replaced with full-growth media containing drug at the desired concentration. The plate was then re-inserted into the microscope and aligned to its prior position and imaging was continued for an additional 24-48 hr. Images were acquired every 12 min (for MCF10A or RPE-hTERT) or every 20 min (for MCF7 or OVCAR3) on a Nikon Eclipse Ti or Ti2 microscope with a 10×0.45 NA objective in a humidified, 37° C. chamber at 5% CO2. Exposure times for all movies for all channels were kept under 500 ms per timepoint to minimize phototoxicity. Cell tracking was performed using published MATLAB scripts (Cappell et al., 2016), as described previously (Arora et al., 2017). The tracking code is available for download at https://github.com/scappell/Cell_tracking. Cell counts over time were obtained by counting the number of segmented nuclei in each frame of the movie.
Asynchronously cycling cells that divided and received drug treatments during the imaging period were initially segmented into categories based on the cells' time of anaphase relative to the time of drug addition. These cells were then additionally subcategorized based on their DHB cytoplasmic/nuclear (C/N) ratio after the mitotic event. C/N ratio was calculated by quantifying the ratio of cytoplasmic to nuclear mean DHB fluorescence, with the cytoplasmic component calculated as the mean of the top 50th percentile of a ring of pixels outside of the nuclear mask.
Cells were classified as CDK2^inc if the DHB C/N ratio was above 0.5 units 3 hr after anaphase, otherwise they were classified as CDK2^low. Figure legends indicate whether only CDK2^inc cells or whether all cells are plotted. The median of the single-cell traces in a subcategory was then used to create median trace with 95% confidence interval representative of the particular subcategory. All cell trace analysis was done using custom MATLAB scripts and code is available upon request.

[3] = tested on: MCF10A, RPE-hTERT, MCF7 and OVCAR3 cells; experiment: Cell-cycle progression, mitosis and proliferation by time-lapse imaging; format: cell-based, human; conditions: 1 μM palbociclib (after the upcoming mitosis) or 9 μM RO3306 (toward end of cell cycle), MCF10A
From the text: as §1, §2

Row | Compound | Nbs1 phosphorylation [1] | DHB sensor phosphorylation ([2]; 10 μM 3 MB-PP1, RPE-hTERT CDK2^F80G/F80G cells) | DHB sensor phosphorylation ([2]; 10 μM 3 MB-PP1, wild-type RPE-hTERT cells) | cell-cycle arrest [3] | DHB phosphorylation in RPE-hTERT CDK2^F80G/F80G cells as compared to wild-type RPE-hTERT cells ([2]; 9 μM RO3306) | effect on DHB sensor phosphorylation ([2]; 9 μM RO3306, MCF10A)
1 | Cc1cccc(Cc2nn(C(C)(C)C)c3ncnc(N)c23)c1 [3 MB-PP1, 1-(tert-butyl)-3-(3-methylbenzyl)-1H-pyrazolo[3,4-d]pyrimidin-4-amine] | loss of Nbs1 phosphorylation | reduction in DHB sensor phosphorylation that quickly rebounded | not affected | – | – | –
2 | O=C1NC(=NCc2cccs2)S/C1=C\c1ccc2ncccc2c1 [RO3306] | – | – | – | G2 arrest | much greater drop in DHB phosphorylation | minimal immediate effect
